Paper PMC5760734, “Development of an oral once-weekly drug delivery system for HIV antiretroviral therapy” (Nature Communications, 2018)

Key:
[1] = humans receiving the usual oral dose; stated by Reviewer 1, no reference; cited from earlier work
[2] = Plasma pharmacokinetics of immediate release and gastric resident dosage forms in pigs; format: in vivo, Yorkshire pigs
Description: All animal experiments were approved by the Committee on Animal Care at the Massachusetts Institute of Technology. In vivo pharmacokinetics were evaluated in an unblinded fashion in female Yorkshire pigs (50–95 kg) that were randomly assigned to the immediate release or sustained release groups. Animals were fed daily in the morning and in the evening with a diet consisting of pellets (Laboratory mini-pig growler diet, 5081), with a midday snack consisting of various fruits and vegetables. Specifically, the pellets were 5/32” x ¼” length, and consisted of ground oats, alfalfa meal, wheat middlings, soybean meal, dried beet pulp, salts and other micronutrients.
To determine the oral pharmacokinetics of immediate release dosage forms of DTG and CAB, 50 mg of DTG and 30 mg of CAB were weighed and filled into gelatine capsules. For RPV pharmacokinetics, RPV base was dissolved in poly(ethylene glycol) (molecular weight—400 Da) containing 10-fold molar excess of citric acid. The concentration of RPV base in this solution was 5 mg/mL and 5 mL of the solution was dosed in a gelatine capsule. […] To determine oral pharmacokinetics from gastric retentive dosage forms, the arms of dosage forms (2–3/pig containing 350 mg DTG, 175 mg RPV or 210 mg CAB) were folded into capsule shells immediately prior to dosing. […]. The capsules containing drug or dosage form were delivered into the intestine or stomach respectively. At various time points, blood samples (0.5 mL) were collected from a central line connected to the external jugular vein or from a mammary vein into […] Vacutainer gold top tubes (Becton, Dickinson and Co. USA). Plasma samples were separated from blood by centrifugation (1800g, 10 min at 4 °C) and were stored at −80 °C. Atropine can reduce gastric acid production and gastric motility which may affect the overall drug pharmacokinetics and the gastric retention of the dosage form. […]. Drug concentrations in the plasma were analysed using UPLC-MS/MS. Plasma samples (100 µL) were spiked with 200 µL acetonitrile solution of 250 µg/mL maraviroc (internal standard) to cause precipitation. Samples were vortexed and sonicated for 10–20 min and then centrifuged (21130g, 10 min). Two hundred microliters of solution were pipetted into a 96-well plate containing 200 µL of nanopure water. Finally, 2.5 μL was injected onto the UPLC–ESI–MS system for analysis.
UPLC separation was carried out on a Waters® UPLC aligned with a Waters® Xevo–TQ-SMS mass spectrometer (Waters Ltd., UK). MassLynx® 4.1 software was used for data acquisition and analysis. Liquid chromatography separation was performed on an Acquity® UPLC CSH C18 (50 × 2.1 mm, 1.7 μm particle size) column at 50 °C. The mobile phase consisted of acetonitrile spiked with 0.1% formic acid and 10 mM ammonium formate solution. The mobile phase was flowed at a rate of 0.6 mL/min using a time and solvent gradient composition. The initial composition (100% aqueous) was held for 1 min, following which the composition was changed linearly to 20% organic phase over the next 0.25 min. The composition was then brought to 100% organic over 1.25 min, held for 0.5 min and finally shifted to the initial composition and held constant until the end of the run for column equilibration. The total run time was 4 min and sample injection volume was 2.5 μL. The mass spectrometer was operated in the multiple reaction monitoring (MRM) mode. Sample introduction and ionization was by electrospray ionization (ESI) in the positive ion mode. DTG, RPV and CAB were analysed at mass-to-charge ratios of […] respectively. Stock solutions of DTG, RPV, CAB, and an internal standard maraviroc were prepared in methanol at a concentration of 500 μg/mL. A ten-point calibration curve was prepared ranging from 2.5–5000 ng/mL. Quality control samples were prepared in a similar procedure using an independent stock solution at three concentrations (5, 50 and 500 ng/mL). […]

[3] = Drug stability at high temperature (150 °C, 2 h), HPLC; format: physicochemical; settings: 150 °C for 2 h
Description: To determine the drug stability at high temperatures, the drug was weighed in a 20 mL glass vial, and placed in a convection oven at 150 °C for 2 h. Drug was dissolved in methanol, and the concentration was compared to that of an unheated standard of the same initial concentration via HPLC.

[4] = immediate release formulation, pigs

For `C[C@@H]1CCO[C@H]2Cn3cc(C(=O)NCc4ccc(F)cc4F)c(=O)c(O)c3C(=O)N12` [DTG, dolutegravir], the “usual Cmax in humans” value [1] is listed as 3700 ng/mL, the Tmax ([2]; female, Yorkshire, pig, plasma, oral, immediate release formulation, pigs, post-dose, read-out: time of maximum plasma concentration (converted)) is listed as 6 h and the “mean peak plasma concentration relative to immediate release” value ([2]; gastric resident system, pigs) is listed as “comparable to that of the immediate release formulation”. The “time to mean peak plasma concentration” value ([2]; gastric resident system, pigs) was no more than 6 h, the “average (sustained) plasma drug concentrations throughout the week following dosing” value ([2]; gastric resident system, pigs, n = 3) was 200 to 800 ng/mL and the “duration of sustained drug concentrations” value ([2]; gastric resident system, single dose) was “up to 1 week”. For the same compound, the “day at or after which no drug was detected in plasma” value [2, 4] was 2 days, the “plasma drug concentrations on day 1” value [2, 4] was “low but detectable” and the “time to detectable plasma concentrations” value [2, 4] was no more than 15 min. The “average maximum plasma concentration” value ([2]; immediate release formulation, pigs, n = 3) was ~ 500 ng/mL and the “stability at elevated temperature” value [3] was “stable”.
